Experimental data published in US20080319065A1, “Systemic and Intrathecal Effects of a Novel Series of Phospholipase A2 Inhibitors on Hyperalgesia and Spinal Pge2 Release” (The Regents of the University of California, priority 2005, published 2008).

Legend:
[1] = target: T1, Group VIA iPLA2 (GVIA PLA2) (Homo sapiens, UniProt O60733); assay: In vitro Group VIA iPLA2 mixed micelle assay; type: biochemical
T1 sequence (O60733 1-806): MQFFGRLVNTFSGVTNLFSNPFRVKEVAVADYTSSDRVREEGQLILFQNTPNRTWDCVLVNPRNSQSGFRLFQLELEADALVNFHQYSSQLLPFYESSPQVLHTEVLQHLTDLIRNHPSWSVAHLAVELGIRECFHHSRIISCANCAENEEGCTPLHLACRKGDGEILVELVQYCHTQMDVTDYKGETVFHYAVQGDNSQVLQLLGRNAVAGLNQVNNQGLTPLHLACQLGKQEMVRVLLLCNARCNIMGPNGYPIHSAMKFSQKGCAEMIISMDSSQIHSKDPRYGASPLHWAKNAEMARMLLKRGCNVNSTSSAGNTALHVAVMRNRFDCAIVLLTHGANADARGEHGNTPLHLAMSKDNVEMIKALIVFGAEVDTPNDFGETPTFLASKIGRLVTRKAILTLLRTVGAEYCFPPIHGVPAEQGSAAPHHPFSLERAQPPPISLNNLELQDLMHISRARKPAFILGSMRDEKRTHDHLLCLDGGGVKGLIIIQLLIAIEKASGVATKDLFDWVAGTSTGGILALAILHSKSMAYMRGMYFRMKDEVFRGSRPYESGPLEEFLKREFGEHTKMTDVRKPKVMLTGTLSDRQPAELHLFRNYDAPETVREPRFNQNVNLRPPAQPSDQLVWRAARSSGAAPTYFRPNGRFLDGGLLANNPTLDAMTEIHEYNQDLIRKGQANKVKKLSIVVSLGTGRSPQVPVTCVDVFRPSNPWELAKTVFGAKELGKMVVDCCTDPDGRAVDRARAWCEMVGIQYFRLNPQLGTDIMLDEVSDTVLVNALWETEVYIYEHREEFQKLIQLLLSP

GVIA PLA2 = target: T2, GVIA PLA2 (Homo sapiens, UniProt O60733); assay: Time dependence and reversibility of GVIA PLA2 inhibition; type: biochemical
T2 sequence (O60733 1-806): T1 sequence (O60733 1-806)
Procedure: GVIA PLA2 (25 ng) was preincubated with either AX010 or AX0073 (5 μM) for 0, 5, 15 or 30 minutes and then assayed in the standard GVIA PLA2 assay mix containing 5 μM inhibitor. The final concentration of the inhibitors in the assay mix was 0.01 mole fraction, and the samples were incubated for 30 minutes at 40° C. […] In the latter respect, 25 ng of GVIA PLA2 was pre-incubated with 10 μM AX010 or AX073 for 10 minutes before diluting the enzyme 1:50 into the standard GVIA PLA2 assay mix lacking inhibitor, and incubating for 30 minutes at 40° C. The final inhibitor concentration in these assays was 0.0004 mole fraction, well below surface concentrations that either AX010 or AX073 inhibit the enzyme.

Structure (SMILES)	inhibition of GVIA PLA2 (iPLA2), in words [1]	Group VIA XI(50), class ([1]; at 0.091 mole fraction)	Inhibition of GVIA PLA2 ([1]; at highest dose)	reversibility of GVIA PLA2 inhibition (GVIA PLA2; pre-incubated with 10 μM for 10 minutes, diluted 1:50, final 0.0004 mole fraction)	time-dependent inhibition of GVIA PLA2 (GVIA PLA2; preincubated 0, 5, 15 or 30 minutes, 5 μM inhibitor, 0.01 mole fraction)	Group VIA XI(50) (mole fraction) ([1]; Table 1b)	melting point [°C]
CCC(=O)C(=O)NCCCC(=O)OC [AX010]	limited inhibition of GVIA PLA2	L.D. (between 25% and 50% inhibition at 0.091 mole fraction)	LD (limited inhibition (25-50%) at highest dose)	freely reversible inhibitors	no increased potency with prolonged incubation		
CCCCCCCCCCCCCCC(=O)C(=O)NCCCC(=O)OCC [AX048, Ethyl 4-[(2-oxohexadecanoyl)amino]butanoate]						0.027 ± 0.009	63 to 64
